Holding throughout (assay): biochemical
Holding throughout (parameters): Eurofins recombinant human kinase profiling, remaining kinase activity as % of control, 10 uM ATP
Holding throughout (conditions): ATP 10 uM; read-out: %Ctrl@10 μM

One test has as its target LIMK1(h) (Homo sapiens, UniProt P53667). In outline: (§1)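 Recombinant human kinases, 401 in total, screened using an outsourced kinase profiling assay.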
For the next test, the target named is T1, MLCK(h) (Homo sapiens, UniProt Q15746).
T1 construct: gene MYLK
In outline: as §1

The next test deals with T2, Abl (H396P) (h) (Homo sapiens, UniProt P00519, H396P).
T2 construct: gene ABL1
The method in brief: as §1

The next test deals with T3, MSK1(h) (Homo sapiens, UniProt O75582).
T3 construct: gene RPS6KA5
The method in brief:
as §1

A further test addresses T4, CK2(h) (Homo sapiens, UniProt P68400).
T4 construct: gene CSNK2A1
The method in brief: as §1

A further test deals with ULK1(h) (Homo sapiens, UniProt O75385). In outline: as §1
A further test has as its target EphB2(h) (Homo sapiens, UniProt P29323). The method in brief: as §1
Another test deals with T5, Rsk2(h) (Homo sapiens, UniProt P51812).
T5 construct: gene RPS6KA3
T5 sequence (P51812 whole entry): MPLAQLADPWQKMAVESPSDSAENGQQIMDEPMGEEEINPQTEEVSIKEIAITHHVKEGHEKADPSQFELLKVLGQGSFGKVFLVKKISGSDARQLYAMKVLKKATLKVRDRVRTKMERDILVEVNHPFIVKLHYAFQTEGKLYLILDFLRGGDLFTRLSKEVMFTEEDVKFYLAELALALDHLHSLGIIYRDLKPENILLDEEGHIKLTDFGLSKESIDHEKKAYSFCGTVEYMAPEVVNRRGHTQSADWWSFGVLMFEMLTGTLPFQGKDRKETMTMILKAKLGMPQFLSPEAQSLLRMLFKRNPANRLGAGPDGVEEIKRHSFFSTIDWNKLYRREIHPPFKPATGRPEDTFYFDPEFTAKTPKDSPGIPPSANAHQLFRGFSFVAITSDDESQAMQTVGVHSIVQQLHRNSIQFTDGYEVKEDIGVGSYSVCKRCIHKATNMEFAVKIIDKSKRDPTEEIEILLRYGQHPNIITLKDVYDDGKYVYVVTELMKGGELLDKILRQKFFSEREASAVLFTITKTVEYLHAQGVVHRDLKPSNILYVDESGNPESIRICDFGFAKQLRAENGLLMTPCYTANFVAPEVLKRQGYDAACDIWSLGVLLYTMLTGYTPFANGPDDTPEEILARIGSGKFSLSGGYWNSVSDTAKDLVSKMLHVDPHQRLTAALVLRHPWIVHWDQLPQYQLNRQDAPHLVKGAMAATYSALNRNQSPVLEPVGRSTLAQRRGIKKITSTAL
In outline:
as §1

For the next test, the target named is SLK(h) (Homo sapiens, UniProt Q9H2G2). In outline: as §1
A further test has as its target BTK(h) (Homo sapiens, UniProt Q06187). The method in brief:
as §1

The next test addresses T6, cKit(D816V)(h) (Homo sapiens, UniProt P10721, D816V).
T6 construct: gene KIT
In outline:
as §1

A further test has as its target T7, TRB2(h) (Homo sapiens, UniProt Q92519).
T7 construct: gene TRIB2
In outline: as §1

Another test has as its target MAP4K4(h) (Homo sapiens, UniProt O95819). In outline:
as §1

In a further test the target is CDK18/cyclinY(h) (Homo sapiens, UniProt Q07002). In outline:
as §1

The target in another test is T8, SIK(h) (Homo sapiens, UniProt P57059).
T8 construct: gene SIK1
T8 sequence (P57059 whole entry): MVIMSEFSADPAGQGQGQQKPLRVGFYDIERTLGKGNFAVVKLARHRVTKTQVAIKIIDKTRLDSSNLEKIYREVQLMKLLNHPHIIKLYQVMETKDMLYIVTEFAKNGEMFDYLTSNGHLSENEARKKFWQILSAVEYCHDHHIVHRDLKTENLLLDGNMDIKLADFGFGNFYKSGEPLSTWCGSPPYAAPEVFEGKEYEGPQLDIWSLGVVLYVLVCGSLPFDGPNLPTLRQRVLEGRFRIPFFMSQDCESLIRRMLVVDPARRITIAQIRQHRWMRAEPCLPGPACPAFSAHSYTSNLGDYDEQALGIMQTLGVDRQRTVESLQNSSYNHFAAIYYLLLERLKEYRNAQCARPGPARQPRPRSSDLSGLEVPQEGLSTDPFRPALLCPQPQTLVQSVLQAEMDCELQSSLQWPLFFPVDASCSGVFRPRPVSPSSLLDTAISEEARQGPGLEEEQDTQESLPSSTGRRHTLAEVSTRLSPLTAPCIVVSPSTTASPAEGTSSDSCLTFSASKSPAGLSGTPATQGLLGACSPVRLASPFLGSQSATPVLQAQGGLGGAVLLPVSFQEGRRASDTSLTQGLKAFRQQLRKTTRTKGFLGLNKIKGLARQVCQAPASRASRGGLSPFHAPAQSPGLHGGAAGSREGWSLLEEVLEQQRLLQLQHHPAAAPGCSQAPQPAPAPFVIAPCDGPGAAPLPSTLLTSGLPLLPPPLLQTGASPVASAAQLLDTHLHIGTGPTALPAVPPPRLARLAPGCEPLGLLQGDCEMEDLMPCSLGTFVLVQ
In outline: as §1

In another test the target is FGFR1(V561M)(h) (Homo sapiens, UniProt P11362, V561M). The method in brief: as §1
Sequence of FGFR1(V561M)(h) (P11362 whole entry V561M): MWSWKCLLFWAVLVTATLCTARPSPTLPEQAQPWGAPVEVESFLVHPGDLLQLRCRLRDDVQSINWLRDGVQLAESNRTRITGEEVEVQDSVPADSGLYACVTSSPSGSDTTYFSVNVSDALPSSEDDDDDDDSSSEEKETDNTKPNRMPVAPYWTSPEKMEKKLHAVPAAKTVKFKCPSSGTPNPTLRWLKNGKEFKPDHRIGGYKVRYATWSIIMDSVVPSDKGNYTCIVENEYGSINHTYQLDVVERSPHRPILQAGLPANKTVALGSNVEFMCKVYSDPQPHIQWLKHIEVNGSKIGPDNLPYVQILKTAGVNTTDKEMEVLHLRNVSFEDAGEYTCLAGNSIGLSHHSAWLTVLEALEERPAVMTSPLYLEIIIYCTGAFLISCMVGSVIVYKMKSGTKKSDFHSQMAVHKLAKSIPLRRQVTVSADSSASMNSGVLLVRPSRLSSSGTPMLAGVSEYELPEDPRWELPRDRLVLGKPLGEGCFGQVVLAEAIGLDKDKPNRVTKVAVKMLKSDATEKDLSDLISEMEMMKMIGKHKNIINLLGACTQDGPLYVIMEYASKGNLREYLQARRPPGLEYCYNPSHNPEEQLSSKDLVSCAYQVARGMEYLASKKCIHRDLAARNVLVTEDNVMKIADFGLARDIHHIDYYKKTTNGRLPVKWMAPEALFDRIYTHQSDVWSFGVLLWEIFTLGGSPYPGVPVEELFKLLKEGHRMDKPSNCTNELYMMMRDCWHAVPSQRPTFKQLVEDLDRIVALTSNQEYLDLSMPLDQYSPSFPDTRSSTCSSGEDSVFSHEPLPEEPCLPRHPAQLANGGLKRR
In the next test the target is MARK3(h) (Homo sapiens, UniProt P27448). In outline:
as §1

For the next test, the target named is T9, Mnk2(h) (Homo sapiens, UniProt Q9HBH9).
T9 construct: gene MKNK2
T9 sequence (Q9HBH9 whole entry): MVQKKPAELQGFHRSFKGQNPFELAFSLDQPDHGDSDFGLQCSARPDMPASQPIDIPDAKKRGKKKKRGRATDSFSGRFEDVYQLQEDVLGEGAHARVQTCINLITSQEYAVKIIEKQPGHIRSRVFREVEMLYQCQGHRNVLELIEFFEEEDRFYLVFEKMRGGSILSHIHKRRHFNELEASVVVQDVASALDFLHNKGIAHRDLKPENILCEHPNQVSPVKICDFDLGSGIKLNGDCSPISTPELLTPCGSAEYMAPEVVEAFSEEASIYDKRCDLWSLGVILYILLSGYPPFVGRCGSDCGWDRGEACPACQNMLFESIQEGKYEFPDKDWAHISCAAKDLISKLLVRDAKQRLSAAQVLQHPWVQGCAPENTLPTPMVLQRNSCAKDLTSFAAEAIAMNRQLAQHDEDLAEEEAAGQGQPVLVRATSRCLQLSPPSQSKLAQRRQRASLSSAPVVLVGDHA
In outline: as §1

Test [1] deals with T10, PI3 Kinase (p110(H1047R)/p85)(h) (Homo sapiens, UniProt P42336, H1047R).
T10 construct: gene PIK3CA
The method in brief: as §1

The next test addresses DDR2(h) (Homo sapiens, UniProt Q16832). The method in brief: as §1
The target in the next test is T11, CaMKIIγ(h) (Homo sapiens, UniProt Q13555).
T11 construct: gene CAMK2G
The method in brief: as §1

Another test has as its target GRK5(h) (Homo sapiens, UniProt P34947). In outline: as §1

T7 sequence (Q92519 whole entry): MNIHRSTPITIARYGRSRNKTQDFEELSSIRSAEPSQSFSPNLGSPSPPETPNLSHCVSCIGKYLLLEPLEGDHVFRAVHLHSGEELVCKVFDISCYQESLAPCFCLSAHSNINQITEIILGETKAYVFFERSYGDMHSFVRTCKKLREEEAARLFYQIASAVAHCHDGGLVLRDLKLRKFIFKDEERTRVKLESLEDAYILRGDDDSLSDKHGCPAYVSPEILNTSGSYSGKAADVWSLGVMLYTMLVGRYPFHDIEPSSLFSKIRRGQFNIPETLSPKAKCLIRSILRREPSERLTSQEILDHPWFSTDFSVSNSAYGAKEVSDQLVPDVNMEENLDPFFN
Sequence of MARK3(h) (P27448 whole entry): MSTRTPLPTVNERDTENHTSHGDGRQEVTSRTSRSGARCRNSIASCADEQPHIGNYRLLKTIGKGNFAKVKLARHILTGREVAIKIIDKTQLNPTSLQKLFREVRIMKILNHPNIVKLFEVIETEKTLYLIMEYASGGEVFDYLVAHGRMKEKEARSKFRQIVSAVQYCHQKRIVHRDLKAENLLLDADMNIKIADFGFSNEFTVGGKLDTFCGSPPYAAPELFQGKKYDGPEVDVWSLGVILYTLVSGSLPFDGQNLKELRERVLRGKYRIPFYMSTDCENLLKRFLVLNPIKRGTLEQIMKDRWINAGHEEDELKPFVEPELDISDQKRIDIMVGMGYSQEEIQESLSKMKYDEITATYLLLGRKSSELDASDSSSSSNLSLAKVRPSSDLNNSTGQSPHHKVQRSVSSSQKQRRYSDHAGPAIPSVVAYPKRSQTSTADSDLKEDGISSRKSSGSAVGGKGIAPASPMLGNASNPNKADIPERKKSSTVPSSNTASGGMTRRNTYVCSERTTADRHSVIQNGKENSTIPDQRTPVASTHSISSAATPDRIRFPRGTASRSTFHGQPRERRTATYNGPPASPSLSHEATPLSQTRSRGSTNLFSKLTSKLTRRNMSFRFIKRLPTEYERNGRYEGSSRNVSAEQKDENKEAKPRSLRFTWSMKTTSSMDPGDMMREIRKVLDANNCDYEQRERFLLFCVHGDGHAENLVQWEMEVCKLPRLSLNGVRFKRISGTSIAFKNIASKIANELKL
Sequence of EphB2(h) (P29323 whole entry): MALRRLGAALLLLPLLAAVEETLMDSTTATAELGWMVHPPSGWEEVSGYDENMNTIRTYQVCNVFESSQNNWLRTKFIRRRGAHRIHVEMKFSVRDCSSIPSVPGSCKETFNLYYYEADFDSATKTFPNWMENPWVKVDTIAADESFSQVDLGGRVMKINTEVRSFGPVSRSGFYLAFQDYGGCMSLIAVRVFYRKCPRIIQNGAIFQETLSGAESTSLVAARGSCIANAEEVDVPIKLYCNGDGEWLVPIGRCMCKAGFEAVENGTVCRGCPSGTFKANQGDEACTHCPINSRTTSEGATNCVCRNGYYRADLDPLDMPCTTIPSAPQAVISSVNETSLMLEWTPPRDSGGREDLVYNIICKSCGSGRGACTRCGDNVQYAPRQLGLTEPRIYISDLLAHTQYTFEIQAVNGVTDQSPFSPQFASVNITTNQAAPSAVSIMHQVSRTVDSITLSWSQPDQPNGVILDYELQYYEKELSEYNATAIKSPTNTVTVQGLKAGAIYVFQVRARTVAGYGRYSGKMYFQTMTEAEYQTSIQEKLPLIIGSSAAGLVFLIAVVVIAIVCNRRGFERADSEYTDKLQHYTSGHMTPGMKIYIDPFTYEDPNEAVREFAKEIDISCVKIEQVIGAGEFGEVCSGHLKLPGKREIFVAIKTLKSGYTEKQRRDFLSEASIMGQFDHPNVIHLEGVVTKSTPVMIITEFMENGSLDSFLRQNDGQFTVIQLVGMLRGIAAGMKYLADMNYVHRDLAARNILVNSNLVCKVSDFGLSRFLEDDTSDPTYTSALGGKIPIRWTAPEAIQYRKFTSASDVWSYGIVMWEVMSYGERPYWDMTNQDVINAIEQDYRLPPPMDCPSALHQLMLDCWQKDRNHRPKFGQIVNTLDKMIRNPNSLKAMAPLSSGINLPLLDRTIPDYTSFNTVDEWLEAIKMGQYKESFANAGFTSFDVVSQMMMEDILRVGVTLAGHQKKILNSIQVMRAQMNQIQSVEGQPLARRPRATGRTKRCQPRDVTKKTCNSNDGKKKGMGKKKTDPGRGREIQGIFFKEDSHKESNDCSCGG

As to `C1=C(c2nc(-c3cnn(C4CCNCC4)c3)cn3cc(-c4ccccc4)nc23)CCOC1` [YL-939], the remaining activity at 10 µM was determined as 86% at LIMK1(h); 60% at MLCK(h); 91% at Abl (H396P) (h); 79% at MSK1(h); 97% at CK2(h); 65% at ULK1(h). The remaining activity at 10 µM on EphB2(h) was 81%; at Rsk2(h), 81%; at SLK(h), 70%; on BTK(h) it was 83%; at cKit(D816V)(h), 108%; on TRB2(h) it was 59%. The remaining activity at 10 µM at MAP4K4(h) stood at 86%; at CDK18/cyclinY(h), 97%; at SIK(h), 100%; at FGFR1(V561M)(h) it was 65%; at MARK3(h), 80%; at Mnk2(h), 74%. The remaining activity at 10 µM is 99% in [1], 95% at DDR2(h), 86% on CaMKIIγ(h) and 72% on GRK5(h).
